Data: patent US11427553B2, “Dihydrooxadiazinones” (Bayer Aktiengesellschaft, priority 2017, dated 2022)

Experiments:
[1] = test system: SK-MEL-3 cells; experiment: Assay 1 cell proliferation measurement (CTG, 72 h), SK-MEL-3; format: cell-based, human; conditions: Homo sapiens, SK-MEL3; Assay 1, 72 h, Cell Titer Glo; read-out: SK-MEL-3 IC50 [nM] (melanoma)
Procedure, shortened: (§1)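 CTG luminescence readout after 72 h compound exposure at 37 °C; 10-point 2.5-fold dilutions from 100 nM max final; DMSO 0.3% vehicle. IC50 from 4-parameter fit, normalised to 0 h plate (max inhibition) and DMSO (min inhibition).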

[2] = molecular target: human full length PDE3A (Homo sapiens (Human), UniProt Q14432); experiment: Assay 4 PDE3A enzyme inhibition (3H-cAMP SPA); format: biochemical; conditions: Sf9 cell extract
Chain of human full length PDE3A (Q14432 whole entry): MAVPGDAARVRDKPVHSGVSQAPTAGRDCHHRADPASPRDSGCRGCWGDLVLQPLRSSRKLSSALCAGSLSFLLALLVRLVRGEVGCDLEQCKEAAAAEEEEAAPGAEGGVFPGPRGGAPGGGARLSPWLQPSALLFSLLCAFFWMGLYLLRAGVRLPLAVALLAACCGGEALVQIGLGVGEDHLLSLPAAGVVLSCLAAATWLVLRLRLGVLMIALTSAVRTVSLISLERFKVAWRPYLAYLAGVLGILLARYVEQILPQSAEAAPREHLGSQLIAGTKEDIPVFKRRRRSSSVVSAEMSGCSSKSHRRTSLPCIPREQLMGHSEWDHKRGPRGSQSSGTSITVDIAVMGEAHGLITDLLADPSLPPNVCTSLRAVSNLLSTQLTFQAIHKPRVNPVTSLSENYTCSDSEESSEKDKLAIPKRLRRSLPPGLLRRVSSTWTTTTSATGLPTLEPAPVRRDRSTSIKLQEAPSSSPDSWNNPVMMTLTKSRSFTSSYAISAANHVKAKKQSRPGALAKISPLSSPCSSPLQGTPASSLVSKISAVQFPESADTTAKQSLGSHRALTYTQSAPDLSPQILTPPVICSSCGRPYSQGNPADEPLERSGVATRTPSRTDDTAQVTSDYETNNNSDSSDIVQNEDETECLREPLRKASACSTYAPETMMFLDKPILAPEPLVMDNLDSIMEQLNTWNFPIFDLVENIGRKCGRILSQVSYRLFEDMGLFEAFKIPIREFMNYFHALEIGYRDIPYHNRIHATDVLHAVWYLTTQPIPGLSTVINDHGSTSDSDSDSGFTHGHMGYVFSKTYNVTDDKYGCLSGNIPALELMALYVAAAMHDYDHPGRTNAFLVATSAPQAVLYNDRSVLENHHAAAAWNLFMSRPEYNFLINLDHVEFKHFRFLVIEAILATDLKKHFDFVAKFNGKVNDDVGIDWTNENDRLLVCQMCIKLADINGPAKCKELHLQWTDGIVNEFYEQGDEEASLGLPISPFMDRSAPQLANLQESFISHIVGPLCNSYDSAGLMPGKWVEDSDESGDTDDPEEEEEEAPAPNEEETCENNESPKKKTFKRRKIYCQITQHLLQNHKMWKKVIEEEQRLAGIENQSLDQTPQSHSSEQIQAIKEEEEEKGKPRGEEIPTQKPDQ
Procedure, shortened: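 In this SPA format, the 60-min room-temperature reaction used 0.025 μCi [8-3H]cAMP and diluted full-length PDE3A from Sf9 cells. Percentage activity was plotted against log compound concentration to derive IC50.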

[3] = molecular target: human full length PDE3B (Homo sapiens (Human), UniProt Q13370); experiment: Assay 5 PDE3B enzyme inhibition (3H-cAMP SPA); format: biochemical; conditions: Sf9 cell extract
Chain of human full length PDE3B (Q13370 whole entry): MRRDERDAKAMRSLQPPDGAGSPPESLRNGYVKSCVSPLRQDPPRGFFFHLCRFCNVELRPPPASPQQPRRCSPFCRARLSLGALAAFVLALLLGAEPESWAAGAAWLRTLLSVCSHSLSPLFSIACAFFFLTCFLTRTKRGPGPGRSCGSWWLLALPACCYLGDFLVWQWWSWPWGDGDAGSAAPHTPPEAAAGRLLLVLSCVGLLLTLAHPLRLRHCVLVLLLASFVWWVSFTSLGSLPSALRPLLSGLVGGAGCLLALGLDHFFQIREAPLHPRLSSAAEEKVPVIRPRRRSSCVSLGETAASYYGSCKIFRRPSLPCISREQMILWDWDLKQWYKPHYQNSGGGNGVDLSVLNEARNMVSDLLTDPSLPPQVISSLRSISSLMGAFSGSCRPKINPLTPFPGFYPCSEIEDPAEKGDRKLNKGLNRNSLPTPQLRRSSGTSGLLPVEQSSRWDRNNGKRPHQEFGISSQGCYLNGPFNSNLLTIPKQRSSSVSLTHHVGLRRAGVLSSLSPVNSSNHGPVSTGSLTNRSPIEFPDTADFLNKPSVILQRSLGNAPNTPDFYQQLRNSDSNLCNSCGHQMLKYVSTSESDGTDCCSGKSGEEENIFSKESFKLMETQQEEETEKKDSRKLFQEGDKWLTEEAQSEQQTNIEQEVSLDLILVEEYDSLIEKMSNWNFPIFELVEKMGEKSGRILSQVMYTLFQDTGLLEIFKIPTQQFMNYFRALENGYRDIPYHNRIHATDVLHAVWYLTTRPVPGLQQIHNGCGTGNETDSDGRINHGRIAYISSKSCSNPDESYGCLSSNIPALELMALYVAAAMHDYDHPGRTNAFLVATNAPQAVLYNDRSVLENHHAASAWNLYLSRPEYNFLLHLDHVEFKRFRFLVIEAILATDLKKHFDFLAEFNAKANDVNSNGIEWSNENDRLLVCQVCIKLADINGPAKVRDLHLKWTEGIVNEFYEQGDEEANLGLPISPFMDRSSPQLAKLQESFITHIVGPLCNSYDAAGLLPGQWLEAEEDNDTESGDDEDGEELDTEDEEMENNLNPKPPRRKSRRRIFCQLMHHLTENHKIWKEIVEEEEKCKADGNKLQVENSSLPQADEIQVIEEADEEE
Procedure, shortened: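 Sf9 cell extract expressing human full-length PDE3B, diluted for linear kinetics (<70% substrate use), in 50 mM Tris/HCl pH 7.5, 8.3 mM MgCl2, 1.7 mM EDTA. [8-3H]cAMP substrate, 60 min at room temperature; stopped with yttrium SPA beads, scintillation counting. IC50 from sigmoidal activity vs log concentration curves.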

[4] = test system: HeLa cells; experiment: Assay 1 cell proliferation measurement (CTG, 72 h), HeLa; format: cell-based, human; conditions: Homo sapiens, HeLa; Assay 1, 72 h, Cell Titer Glo; read-out: HeLa IC50 [nM] (Cervical cancer)
Procedure, shortened: as §1

Structure (SMILES)	IC50 [1]	IC50 [2]	IC50 [3]	IC50 [4]
Cc1ccc(-c2ccc(C3=NNC(=O)OC3)cc2C(F)(F)F)cc1O [Example 35, 5-[3′-Hydroxy-4′-methyl-2-(trifluoromethyl)biphenyl-4-yl]-3,6-dihydro-2H-1,3,4-oxadiazin-2-one]	25 nM	79 nM	75 nM	39 nM
Cc1noc(C)c1-c1ccc(C2=NNC(=O)OC2)cc1C(F)(F)F [Example 129, 5-[4-(3,5-Dimethyl-1,2-oxazol-4-yl)-3-(trifluoromethyl)phenyl]-3,6-dihydro-2H-1,3,4-oxadiazin-2-one]	> 100 nM	970 nM	770 nM	> 100 nM
COC(C)(C)CNc1ccc(C2=NNC(=O)OC2)cc1C(F)(F)F [Example 258, 5-{4-[(2-Methoxy-2-methylpropyl)amino]-3-(trifluoromethyl)phenyl}-3,6-dihydro-2H-1,3,4-oxadiazin-2-one]	6 nM	41 nM	130 nM	3 nM
Cc1nc2cc(-c3ccc(C4=NNC(=O)OC4)cc3C(F)(F)F)ccc2s1 [Example 325, 5-[4-(2-methyl-1,3-benzothiazol-5-yl)-3-(trifluoromethyl)phenyl]-3,6-dihydro-2H-1,3,4-oxadiazin-2-one]	> 100 nM	56 nM	150 nM	> 100 nM
Cn1cc(-c2ccc(C3=NNC(=O)OC3)cc2OC(F)(F)F)cn1 [Example 68, 5-[4-(1-Methyl-1H-pyrazol-4-yl)-3-(trifluoromethoxy)phenyl]-3,6-dihydro-2H-1,3,4-oxadiazin-2-one]	6 nM	81 nM	152 nM	4 nM
O=C1NN=C(c2ccc([C@H]3CC[C@@H](O)CC3)c(C(F)(F)F)c2)CO1 [Example 273, (cis)-5-{4-[4-Hydroxycyclohexyl]-3-(trifluoromethyl)phenyl}-3,6-dihydro-2H-1,3,4-oxadiazin-2-one]	1 nM	44 nM	53 nM	1 nM
Cc1cc(C2=NNC(=O)OC2)ccc1-c1ccccc1 [Example 27, 5-(2-Methylbiphenyl-4-yl)-3,6-dihydro-2H-1,3,4-oxadiazin-2-one]	6 nM	75 nM	110 nM	2 nM
COc1ccc(-c2ccc(C3=NNC(=O)O[C@H]3C)cc2C(F)(F)F)cn1 [Example 187, (6S)-5-[4-(6-Methoxypyridin-3-yl)-3-(trifluoromethyl)phenyl]-6-methyl-3,6-dihydro-2H-1,3,4-oxadiazin-2-one]	40 nM	81 nM	100 nM	23 nM
Nc1cc(-c2ccc(C3=NNC(=O)OC3)cc2C(F)(F)F)c(F)cc1F [Example 38, 5-[5′-Amino-2′,4′-difluoro-2-(trifluoromethyl)biphenyl-4-yl]-3,6-dihydro-2H-1,3,4-oxadiazin-2-one]	> 100 nM	210 nM	260 nM	83 nM
O=C1NN=C(c2ccc(-c3cccc(F)c3)c(F)c2)CO1 [Example 117, 5-(2,3′-Difluoro[1,1′-biphenyl]-4-yl)-3,6-dihydro-2H-1,3,4-oxadiazin-2-one]	9 nM	77 nM	95 nM	5 nM
Nc1cc(-c2ccc(C3=NNC(=O)OC3)cc2C(F)(F)F)ccc1F [Example 56, 5-[3′-Amino-4′-fluoro-2-(trifluoromethyl)biphenyl-4-yl]-3,6-dihydro-2H-1,3,4-oxadiazin-2-one]	10 nM	180 nM	80 nM	5 nM
Cc1ccc(-c2ccc(C3=NNC(=O)O[C@H]3C)cc2C(F)(F)F)cc1F [Example 178, (6S)-5-[3′-Fluoro-4′-methyl-2-(trifluoromethyl)[1,1′-biphenyl]-4-yl]-6-methyl-3,6-dihydro-2H-1,3,4-oxadiazin-2-one]	19 nM	140 nM	130 nM	13 nM
Cc1cnccc1-c1ccc(C2=NNC(=O)OC2)cc1F [Example 78, 5-[3-Fluoro-4-(3-methylpyridin-4-yl)phenyl]-3,6-dihydro-2H-1,3,4-oxadiazin-2-one]	21 nM	29 nM	48 nM	10 nM
C[C@@H]1OC(=O)NN=C1c1ccc(N2CCOCC2)c(C(F)(F)F)c1 [Example 120, (6S)-6-Methyl-5-[4-(morpholin-4-yl)-3-(trifluoromethyl)phenyl]-3,6-dihydro-2H-1,3,4-oxadiazin-2-one]	1 nM	6 nM	4 nM	0.3 nM
CC(C)(O)CNc1ccc(C2=NNC(=O)OC2)cc1C(F)(F)F [Example 210, 5-{4-[(2-Hydroxy-2-methylpropyl)amino]-3-(trifluoromethyl)phenyl}-3,6-dihydro-2H-1,3,4-oxadiazin-2-one]	8 nM	140 nM	363 nM	6 nM
O=C1NN=C(c2ccc(F)c(C(F)(F)F)c2)CO1 [Intermediate 66, 5-[4-Fluoro-3-(trifluoromethyl)phenyl]-3,6-dihydro-2H-1,3,4-oxadiazin-2-one]	> 100 nM	> 1000 nM	> 1000 nM	56 nM
Cc1ncc(-c2ccc(C3=NNC(=O)OC3)cc2C(F)(F)F)cc1F [Example 48, 5-[4-(5-Fluoro-6-methylpyridin-3-yl)-3-(trifluoromethyl)phenyl]-3,6-dihydro-2H-1,3,4-oxadiazin-2-one]	16 nM	240 nM	240 nM	8 nM
CCCCNc1ccc(C2=NNC(=O)OC2)cc1C(F)(F)F [Example 66, 5-[4-(Butylamino)-3-(trifluoromethyl)phenyl]-3,6-dihydro-2H-1,3,4-oxadiazin-2-one]	3 nM	65 nM	95 nM	2 nM
Cc1ccc(-c2ccc(C3=NNC(=O)OC3)cc2F)cc1N [Example 103, 5-(3′-Amino-2-fluoro-4′-methyl[1,1′-biphenyl]-4-yl)-3,6-dihydro-2H-1,3,4-oxadiazin-2-one]	6 nM	66 nM	140 nM	3 nM
O=C1NN=C(c2cc(F)c(N3CCOCC3)c(C(F)(F)F)c2)CO1 [Example 264, 5-[3-Fluoro-4-(morpholin-4-yl)-5-(trifluoromethyl)phenyl]-3,6-dihydro-2H-1,3,4-oxadiazin-2-one]	2 nM	75 nM	112 nM	2 nM
O=C1NN=C(c2ccc(NCC(O)C(F)(F)F)c(C(F)(F)F)c2)CO1 (racemic) [Example 204, (rac)-5-[4-{[3,3,3-trifluoro-2-hydroxypropyl]amino}-3-(trifluoromethyl)phenyl]-3,6-dihydro-2H-1,3,4-oxadiazin-2-one]	2 nM	80 nM	110 nM	1 nM
Cn1cc(-c2ccc(C3=NNC(=O)OC3)cc2C(F)(F)F)cn1 [Example 45, 5-[4-(1-Methyl-1H-pyrazol-4-yl)-3-(trifluoromethyl)phenyl]-3,6-dihydro-2H-1,3,4-oxadiazin-2-one]	4 nM	43 nM	34 nM	3 nM
O=C1NN=C(c2ccc(C3=CCCC3)c(C(F)F)c2)CO1 [Example 201, 5-[4-(Cyclopent-1-en-1-yl)-3-(difluoromethyl)phenyl]-3,6-dihydro-2H-1,3,4-oxadiazin-2-one]	9 nM	86 nM	77 nM	3 nM
O=C1NN=C(c2ccc(-c3cc4ccccc4s3)c(C(F)(F)F)c2)CO1 [Example 148, 5-[4-(1-Benzothiophen-2-yl)-3-(trifluoromethyl)phenyl]-3,6-dihydro-2H-1,3,4-oxadiazin-2-one]	> 100 nM	190 nM	210 nM	53 nM
O=C1NN=C(c2ccc(NC[C@H](O)C(F)(F)F)c(C(F)(F)F)c2)CO1 [Example 209, 5-[4-{[3,3,3-Trifluoro-(2S)-hydroxypropyl]amino}-3-(trifluoromethyl)phenyl]-3,6-dihydro-2H-1,3,4-oxadiazin-2-one]	7 nM	275 nM	533 nM	7 nM
Cc1nn(C)cc1-c1ccc(C2=NNC(=O)OC2)cc1C(F)(F)F [Example 52, 5-[4-(1,3-Dimethyl-1H-pyrazol-4-yl)-3-(trifluoromethyl)phenyl]-3,6-dihydro-2H-1,3,4-oxadiazin-2-one]	> 100 nM	65 nM	30 nM	48 nM
O=C1NN=C(c2ccc(-c3ccc(F)c(O)c3)c(C(F)(F)F)c2)CO1 [Example 37, 5-[4′-Fluoro-3′-hydroxy-2-(trifluoromethyl)biphenyl-4-yl]-3,6-dihydro-2H-1,3,4-oxadiazin-2-one]	12 nM	150 nM	130 nM	37 nM
